Reference: patent US20020025940A1, “Methods and compositions for sensitive and rapid, functional identification of genomic polynucleotides and use for cellular assays in drug discovery” (Aurora Biosciences Corporation, priority 1997, published 2002)

How the values were obtained:
[1] = test system: repressed BLEC Jurkat clones; experiment: Characterization of repressed BLEC Jurkat clones, relative repression of beta-lactamase; format: cell-based, human; conditions: PHA 10 microgram/ml, CsA 100 nM, PMA 8 nM, Thaps 1 microM
Text: These clones represent cells in which the BLEC trapping construct had integrated into a gene down regulated by PHA (T-cell) activation. Thus, these cells report the transcriptional repression of a gene upon cellular activation. Individual clones were identified and isolated by FACS using CCF2/AM to detect beta-lactamase activity using the following repressed sorting paradigm.
A first sort was used to isolate a population of cells that constitutively express beta-lactamase by identifying and isolating a population of blue cells from an unstimulated population of BLEC transfected Jurkat cells contacted with CCF2/AM. The sorted population of cells represented 2.89% of the unsorted population. These cells were cultured, divided into two pools, and stimulated with one of two different stimuli, either 10 micrograms/ml PHA for 18 hours, or 8 nM PMA and 1 microM Thapsigargin for 18 hours. These stimulated cells were contacted with CCF2 (loading in the presence of 400 PET (4% weight/volume) and Pluoronic 128 (100 micrograms/ml)) and the green cells in the population were sorted using FACS. The sorted population represented 8.41% of the cell population prior to the second sort. The third round of FACS was for single blue unstimulated cells. The population of cells obtained represented 18.2% of the cell population prior to the third sort.
This sorting procedure represents a 2,260-fold enrichment for PHA repressible clones. These clones have the beta-lactamase gene integrated into a gene that is down regulated by PHA stimulation of the cells. Six of 80 individual clones tested were repressed by PHA or PMA+Thapsigargin. All of these clones were confirmed to be independent integration events by genomic Southern analysis using a DNA probe encoding beta-lactamase.
Table 7 and Table 8 provide data similar to that provided in Table 5 for all of the clones obtained by the methods of Examples 5 to 7.

M1 receptor = molecular target: T1, M1 receptor (Homo sapiens, UniProt P11229); format: cell-based; conditions: cell line J389PT14/pcDNA3-M1; 30 μM Carbachol, 10 nM PHA; 6 hours; unstimulated = 1
T1 construct: expressed in transfected cells; host or cells: Jurkat-derived BLEC clone J389PT14, transiently transfected by electroporation with pcDNA3-M1
Experimental: For example, a calcium-sensitive clone was transfected with a Gq-type GPCR by electroporation. Cells from clone J389PT14 were transfected by electroporation with a plasmid (pcDNA3 (Invitrogen) or pcDNA3-M1 (pcDNA3 that can operably express M1 receptor) to make cell lines J389PTI4/pcDNA3 and J389PTI4/pcDNA3-Ml). […] Thus, the J389PTI4/pcDNA3 cell is a control cell. […] These cells were contacted with CCF-2 dye for another 90 minutes. The 460/530 ratio changes were measured in a Cytoflour (Series 4000 Model) (Perceptive Biosystems) fluorescence plate reader and correspond to reporter gene expression.

T1 sequence (P11229 whole entry): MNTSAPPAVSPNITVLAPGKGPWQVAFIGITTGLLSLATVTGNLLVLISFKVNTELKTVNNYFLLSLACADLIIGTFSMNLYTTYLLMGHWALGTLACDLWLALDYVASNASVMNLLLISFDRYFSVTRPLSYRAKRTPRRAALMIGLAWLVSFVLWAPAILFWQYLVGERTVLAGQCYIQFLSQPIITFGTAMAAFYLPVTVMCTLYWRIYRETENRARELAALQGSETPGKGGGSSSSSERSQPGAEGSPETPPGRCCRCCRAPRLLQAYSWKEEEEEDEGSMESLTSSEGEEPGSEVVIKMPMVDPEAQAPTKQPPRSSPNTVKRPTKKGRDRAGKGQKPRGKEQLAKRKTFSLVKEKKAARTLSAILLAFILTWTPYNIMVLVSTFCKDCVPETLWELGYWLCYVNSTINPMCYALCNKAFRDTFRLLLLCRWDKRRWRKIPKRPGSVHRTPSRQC

phytohemaglutinin [PHA]
Relative repression of beta-lactamase in the indicated clone by the following activator ([1]; clone 183/97pptr2): 10
Relative repression of beta-lactamase in the indicated clone by the following activator ([1]; clone J83/97pptr1): 90
Relative repression of beta-lactamase in the indicated clone by the following activator ([1]; clone J83/97pptr3): 10
Relative repression of beta-lactamase in the indicated clone by the following activator ([1]; clone J83/97pptr4): 60
Relative repression of beta-lactamase in the indicated clone by the following activator ([1]; clone J83/97pptr5): 50
Relative repression of beta-lactamase in the indicated clone by the following activator ([1]; clone J83/97pptr6): 70
Relative expression of beta-lactamase in cells exposed to the indicated stimuli (M1 receptor): 13
